Measurements published in patent publication US11000501B2, “Composition for preventing or treating neurological and mental disorders, containing syringaresinol” (SEOUL NATIONAL UNIVERSITY R&DB FOUNDATION, priority 2016, dated 2021).

What was measured:
Assay type in all cases: cell-based, mouse
[1] = test system: CA1 neurons; experiment: Whole-cell current clamp recording of membrane potential
Excerpt: Next, whole-cell current clamp recordings were used to check the effect of SYR on the membrane potential of CA1 neurons.

[2] = test system: SC-CA1 synapse synaptic vesicle pool; experiment: Readily releasable pool (RRP) size by cumulative amplitude analysis, 20 Hz train; details: 100 μM; 80 stimuli at 20 Hz
Protocol: Previous studies have shown that the secretion probability is regulated by the size of the readily releasable pool (RRP) of hippocampal neurons. Therefore, RRP was measured before and after treatment with SYR (100 μM). A high-frequency train (20 Hz) composed of more than 60 stimuli was prepared. 80 stimuli at 20 Hz was applied to completely remove RRP from the SC-CA1 synapse. RRP size was measured by cumulative amplitude analysis (Stevens and Williams, 2007; Wesseling and Lo, 2002). In the presence of AP-5 and picrotoxin, SYR inhibited AMPAR-EPSC (FIG. 5A and FIG. 5B). […] An extent by which RRP size is reduced was very close to an extent by which synapse is inhibited (FIG. 5B and FIG. 5F). […] This means that a decrease in RRP size may lead to the SYR-induced synapse decrease.

[3] = test system: Schaffer collateral (SC)-CA1 synapse of the hippocampus; experiment: fEPSP recording in hippocampal SC-CA1 synapse (hippocampal slices); details: for first and second fEPSPs: paired pulse interval 100 ms
Protocol: A hippocampus slice (400 μm thick) was prepared in a cold dissection buffer using a vibrating machine (Vibratome, Leica, Germany) and then a CA3 region of each slice was removed surgically immediately after the slice formation. In this connection, the cold dissection buffer contained sucrose 230 mM; NaHCO3 25 mM; KCl 2.5 mM; NaH2PO4 1.25 mM; D-glucose 10 mM; Na-ascorbic acid salt 1.3 mM; MgCl2 3 mM; CaCl2 0.5 mM, 95% O2/5% CO2 and had pH 7.4. The slice was recovered in a normal ACSF (artificial cerebrospinal fluid) for 1 hour and then maintained at room temperature (23 to 25° C.) until recording. […] All electrophysiological experiments were performed in a recording chamber while the samples were immersed in the solution in a manner described previously (Song et al., 2017). Signals were amplified using a MultiClamp 700B amplifier (Molecular Devices, CA, USA) at a cut-off frequency of 2.8 kHz and were measured with a Digidata 1440A interface (Molecular Devices) at a 10 kHz sampling frequency. Data were collected using pClamp 10.2 (Molecular Devices) software. The collected data were analyzed with a program created in the lab using Igor Pro (WaveMetrics, OR, USA). To record the field excitatory post-synaptic potential (fEPSP) in the hippocampal SC-CA1 synapse, hippocampal slices were placed in the recording chamber and perfused with ACSF while oxygen was fed continuously to the ACSF. The ACSF was maintained at a temperature of 29 to 30° C. using a heater for perfusion (SH-27B, Warner Instruments, CT, USA). A synapse response was induced by stimulation with a glass pipette (0.3 to 0.5 Mohm) every 20 seconds (0.05 Hz). The synapse response was recorded using a glass pipette (3 to 4 Mohm) filled with ACSF. The intensity of the stimulus was adjusted to produce a synapse response of about ⅓ of the maximum value thereof. The slices with unstable (10%) baseline records were excluded. To investigate the effect of syringaresinol (SYR) on the synaptic transmission, the field excitatory post-synaptic potential (fEPSP) of the Schaffer collateral (SC)-CA1 synapse of the hippocampus of adult mice (4 to 6 weeks of age) was measured. After confirming the stable baseline, different concentrations of SYR were applied thereto using the perfusion solution.

[4] = test system: NMDAR-EPSC in CA1 neurons; experiment: NMDAR-mediated EPSC recording in CA1 neurons; details: −40 mV; NBQX and picrotoxin present; 100-ms interval
Protocol: (§1) To measure evoked excitatory post-synaptic current (eEPSC), the synapse potential was recorded using a patch pipette (3 to 4Mohm) via the membrane voltage clamp technique. The patch pipette contained a solution containing 100 mM CsMeSO4, 10 mM TEA-Cl, 20 mM CsCl, 8 mM NaCl, 10 mM HEPES, 0.5 mM QX-314-Cl, 4 mM Mg-ATP, 0.3 mM Na-GTP and 10 mM EGTA and having pH 7.25 and 290 mOsm/kg. EPSC was measured at a frequency of 0.05 Hz. The synaptic current was induced using a glass pipette (0.3 to 0.5 Mohm). GABAA receptor (GABAAR) antagonist picrotoxin (50 μM) was added to ACSF.

[5] = test system: CA1 neurons (inhibitory synaptic transmission); experiment: Evoked IPSC (eIPSC) recording in CA1 neurons; details: 100 μM
Excerpt: A stimulating electrode was placed on a radiating layer or a pyramidal cell layer near the target cell. […] […] During eEPSC or eIPSC recording, series resistance and seal resistance were continuously observed using short hyperpolarization pulses (−5 mV, 50 ms). When the resistance was changed by more than 20% during recording, the data was discarded.
SYR […] inhibitory synaptic transmission in CA1 neurons. […] There was no difference between the first eIPSC (t=−0.47, p>0.05) and the second eIPSC (t=−0.33, p>0.05) as measured before and after the application of SYR respectively.

[6] = test system: AMPAR-EPSC in CA1 neurons; experiment: AMPAR-mediated EPSC whole-cell patch clamp in CA1 neurons
Protocol: as §1
Thus, it was necessary to check the effect of SYR on desensitization of AMPAR in CA1 neurons. The whole-cell patch clamp technique was used in the presence of NMDAR blocker AP-5 and GABAA receptor blocker picrotoxin (PTX, 50 μM).
To confirm this assumption, we examined the effect of SYR on AMPAR-EPSC by injecting, as the actin-stabilizer, jasplakinolide (2 μM) into the patch pipette solution (FIG. 3H to FIG. 3J).
Furthermore, we checked whether post-synaptic loading of SYR regulates AMPAR-EPSC. We measured AMPAR-EPSC for 25 minutes immediately after cell membrane-punching using a K+-based pipette solution. […] If the post-synaptic loading of SYR affects AMPAR-EPSC, gradual diffusion of SYR from the pipette solution should inhibit AMPAR-EPSC.
Previous studies have shown that the secretion probability is regulated by the size of the readily releasable pool (RRP) of hippocampal neurons. Therefore, RRP was measured before and after treatment with SYR (100 μM). A high-frequency train (20 Hz) composed of more than 60 stimuli was prepared. 80 stimuli at 20 Hz was applied to completely remove RRP from the SC-CA1 synapse. RRP size was measured by cumulative amplitude analysis (Stevens and Williams, 2007; Wesseling and Lo, 2002).

SMILES: COc1cc(C2OCC3C(c4cc(OC)c(O)c(OC)c4)OCC23)cc(OC)c1O (centres unmarked) [SYR, syringaresinol]
- membrane potential of CA1 neurons ([1]; SYR 100 μM applied extracellularly): Significant hyperpolarization
- resting membrane potential ([1]; SYR 100 μM in the pipette solution): did not affect resting membrane potential
- RRP size [2]: significant decrease
- paired-pulse ratio (PPR) of fEPSP ([3]; 30 μM and 100 μM, interval 100 ms): gradually increased
- first and second fEPSPs ([3]; 30 μM): significantly decreased
- amplitude of fEPSP during SYR perfusion (1 h) ([3]; 100 μM, 1 h): rapidly decreased and then remained stable
- PPR before vs one hour after application, small inter-pulse interval ([3]; 100 μM, interval 200 ms): significant difference in PPR
- PPR before vs one hour after application, large inter-pulse interval ([3]; 100 μM, interval 500 ms): no difference in PPR
- first and second fEPSPs ([3]; 100 μM): significantly decreased
- inhibition at 500 µM ([3]; Mus musculus, 500 μM of SYR, read-out: maximum inhibition of fEPSP): 75.9 ± 1.6%
- IC50 ([3]; Mus musculus, SC-CA1 synapse, hippocampal slice, bath perfusion, read-out: IC50 for decrease of slope and amplitude of fEPSP): 90 µM
- post-synaptic response (fEPSP) ([3]; high concentrations, >10 μM): decreased rapidly
- effect on fEPSP ([3]; low concentrations, 1 to 5 μM): did not affect fEPSP
- PPR and fEPSP after washing the SYR with control solution ([3]; washout): slowly recovered to baseline
- NMDAR-EPSC induced by paired-pulse stimulation [4]: significantly inhibited
- ratio of IPSC amplitude induced by paired-pulse stimulation (PPR) ([5]; 100 ms interval): did not change
- eIPSC amplitude (first and second) ([5]; in presence of NBQX and AP-5): had no effect on eIPSC
- AMPAR-EPSC ([6]; 100 μM, AP-5 and picrotoxin present): inhibited
- excitatory post-synaptic current (EPSC) amplitude ([6]; fixed potential of −70 mV, AP-5 and picrotoxin 50 μM present): significantly reduced
- time constant of EPSC reduction (decay) ([6]; −70 mV): did not affect
